Measured values: patent publication US11292770B2, “Pyridazinone herbicides” (FMC Corporation, priority 2017, dated 2022)

Experiments:
Type in all cases: in vivo
[1] = system: ducksalad (Heteranthera limosa); assay: Test B flooded paddy test, ducksalad; settings: Flood, 250 g ai/ha; scale of 0 to 100
Description: (§1) Plant species in the flooded paddy test selected from rice (Oryza sativa), sedge, umbrella (small-flower umbrella sedge, Cyperus difformis), ducksalad (Heteranthera limosa), and barnyardgrass (Echinochloa crus-galli) were grown to the 2-leaf stage for testing. At the time of treatment, test pots were flooded to 3 cm above the soil surface, treated by application of test compounds directly to the paddy water, and then maintained at that water depth for the duration of the test. Treated plants and controls were maintained in a greenhouse for 13 to 15 d, after which time all species were compared to controls and visually evaluated. Plant response ratings, summarized in Table B, are based on a scale of 0 to 100 where 0 is no effect and 100 is complete control. A dash (—) response means no test result.

[2] = system: galium (catchweed bedstraw, Galium aparine); assay: Test A postemergence, galium; settings: 0 to 100 scale
Excerpt: (§2) Seeds of plant species selected from barnyardgrass (Echinochloa crus-galli), kochia (Kochia scoparia), ragweed (common ragweed, Ambrosia elation), ryegrass, Italian (Italian ryegrass, Lolium multiflorum), foxtail, green (green foxtail, Setaria viridis), and pigweed (Amaranthus retroflexus) were planted into a blend of loam soil and sand and treated preemergence with a directed soil spray using test chemicals formulated in a non-phytotoxic solvent mixture which included a surfactant. At the same time, plants selected from these weed species and also wheat (Triticum aestivum), corn (Zea mays), blackgrass (Alopecurus myosuroides), and galium (catchweed bedstraw, Galium aparine) were planted in pots containing the same blend of loam soil and sand and treated with postemergence applications of test chemicals formulated in the same manner Plants ranged in height from 2 to 10 cm and were in the one- to two-leaf stage for the postemergence treatment. Treated plants and untreated controls were maintained in a greenhouse for approximately 10 d, after which time all treated plants were compared to untreated controls and visually evaluated for injury. Plant response ratings, summarized in Table A, are based on a 0 to 100 scale where 0 is no effect and 100 is complete control. A dash (—) response means no test result.

[3] = system: ryegrass, Italian (Italian ryegrass, Lolium multiflorum); assay: Test A postemergence, ryegrass, Italian; settings: 0 to 100 scale
Excerpt: as §2

[4] = system: corn (Zea mays); assay: Test A postemergence, corn; settings: 0 to 100 scale
Excerpt: as §2

[5] = system: ragweed (common ragweed, Ambrosia elation); assay: Test A postemergence, ragweed; settings: 0 to 100 scale
Excerpt: as §2

[6] = system: blackgrass (Alopecurus myosuroides); assay: Test A postemergence, blackgrass; settings: 0 to 100 scale
Excerpt: as §2

[7] = system: kochia (Kochia scoparia); assay: Test A preemergence, kochia; settings: 0 to 100 scale
Excerpt: as §2

[8] = system: sedge, umbrella (small-flower umbrella sedge, Cyperus difformis); assay: Test B flooded paddy test, sedge, umbrella; settings: Flood, 250 g ai/ha; scale of 0 to 100
Description: as §1

[9] = system: barnyardgrass (Echinochloa crus-galli); assay: Test A preemergence, barnyardgrass; settings: 0 to 100 scale
Excerpt: as §2

[10] = system: pigweed (Amaranthus retroflexus); assay: Test A postemergence, pigweed; settings: 0 to 100 scale
Excerpt: as §2

[11] = system: pigweed (Amaranthus retroflexus); assay: Test A preemergence, pigweed; settings: 0 to 100 scale
Excerpt: as §2

[12] = system: wheat (Triticum aestivum); assay: Test A postemergence, wheat; settings: 0 to 100 scale
Excerpt: as §2

[13] = system: barnyardgrass (Echinochloa crus-galli); assay: Test A postemergence, barnyardgrass; settings: 0 to 100 scale
Excerpt: as §2

[14] = system: kochia (Kochia scoparia); assay: Test A postemergence, kochia; settings: 0 to 100 scale
Excerpt: as §2

[15] = system: rice (Oryza sativa); assay: Test B flooded paddy test, rice; settings: Flood, 250 g ai/ha; scale of 0 to 100
Description: as §1

[16] = system: ryegrass, Italian (Italian ryegrass, Lolium multiflorum); assay: Test A preemergence, ryegrass, Italian; settings: 0 to 100 scale
Excerpt: as §2

[17] = system: foxtail, green (green foxtail, Setaria viridis); assay: Test A preemergence, foxtail, green; settings: 0 to 100 scale
Excerpt: as §2

[18] = system: foxtail, green (green foxtail, Setaria viridis); assay: Test A postemergence, foxtail, green; settings: 0 to 100 scale
Excerpt: as §2

[19] = system: barnyardgrass (Echinochloa crus-galli); assay: Test B flooded paddy test, barnyardgrass; settings: Flood, 250 g ai/ha; scale of 0 to 100, 0 no effect, 100 complete control
Description: as §1

[20] = system: ragweed (common ragweed, Ambrosia elation); assay: Test A preemergence, ragweed; settings: 0 to 100 scale
Excerpt: as §2

[21] = 125 g ai/ha, 0 no effect, 100 complete control

Compound | Plant response rating, Galium ([2]; 31 g ai/ha) | Plant response rating, Galium ([2]; 125 g ai/ha) | Plant response rating, Ryegrass, Italian ([3]; 31 g ai/ha) | Plant response rating, Ryegrass, Italian ([3]; 125 g ai/ha) | Plant response rating, Corn ([4]; 31 g ai/ha) | Plant response rating, Corn ([4]; 125 g ai/ha) | Plant response rating, Ragweed ([5]; 31 g ai/ha) | Plant response rating, Ragweed ([5]; 125 g ai/ha) | Plant response rating, Blackgrass ([6]; 31 g ai/ha) | Plant response rating, Blackgrass ([6]; 125 g ai/ha) | Plant response rating, Kochia ([7]; 31 g ai/ha) | Plant response rating, Kochia ([7]; 125 g ai/ha) | Plant response rating, Barnyardgrass ([9]; 31 g ai/ha) | Plant response rating, Barnyardgrass ([9]; 125 g ai/ha) | Plant response rating, Pigweed ([10]; 31 g ai/ha) | Plant response rating, Pigweed ([10]; 125 g ai/ha) | Plant response rating, Pigweed ([11]; 31 g ai/ha) | Plant response rating, Pigweed ([11]; 125 g ai/ha) | Plant response rating, Wheat ([12]; 31 g ai/ha) | Plant response rating, Wheat ([12]; 125 g ai/ha) | other results
Cn1nc(Cl)c(O)c(-c2c3ccccc3cc3ccccc23)c1=O [Compound 1, 4-(9-anthracenyl)-6-chloro-5-hydroxy-2-methyl-3(2H)-pyridazinone] | 70 | 90 | 20 | 40 | 0 | 0 | 80 | 90 | 0 | 10 | 0 | 20 | 0 | 0 | 90 | 100 | 100 | 100 | 0 | 10 | Plant response rating, Ducksalad [1]: 85; Plant response rating, Sedge, Umbrella [8]: 90; Plant response rating, Barnyardgrass ([13]; 31 g ai/ha): 0; Plant response rating, Barnyardgrass [13, 21]: 20; Plant response rating, Kochia ([14]; 31 g ai/ha): 10; Plant response rating, Kochia ([14]; 125 g ai/ha): 20; Plant response rating, Rice [15]: 0; Plant response rating, Ryegrass, Italian ([16]; 31 g ai/ha): 20; Plant response rating, Ryegrass, Italian ([16]; 125 g ai/ha): 30; Plant response rating, Foxtail, Green ([17]; 31 g ai/ha): 0; Plant response rating, Foxtail, Green ([17]; 125 g ai/ha): 0; Plant response rating, Foxtail, Green ([18]; 31 g ai/ha): 10; Plant response rating, Foxtail, Green ([18]; 125 g ai/ha): 50; Plant response rating, Barnyardgrass [19]: 20; Plant response rating, Ragweed ([20]; 31 g ai/ha): 70; Plant response rating, Ragweed ([20]; 125 g ai/ha): 100
Cn1nc(Cl)c(O)c(-c2c3ccccc3c(Cl)c3ccccc23)c1=O [Compound 2, 6-chloro-4-(10-chloro-9-anthracenyl)-5-hydroxy-2-methyl-3(2H)-pyridazinone] | 20 | 100 | 50 | 80 | 0 | 0 | 90 | 90 | 0 | 60 | 0 | 10 | 0 | 0 | 100 | 100 | 100 | 100 | 0 | 30 | Plant response rating, Ducksalad [1]: 80; Plant response rating, Sedge, Umbrella [8]: 75; Plant response rating, Barnyardgrass ([13]; 31 g ai/ha): 0; Plant response rating, Barnyardgrass [13, 21]: 20; Plant response rating, Kochia ([14]; 31 g ai/ha): 10; Plant response rating, Kochia ([14]; 125 g ai/ha): 70; Plant response rating, Rice [15]: 0; Plant response rating, Ryegrass, Italian ([16]; 31 g ai/ha): 20; Plant response rating, Ryegrass, Italian ([16]; 125 g ai/ha): 70; Plant response rating, Foxtail, Green ([17]; 31 g ai/ha): 0; Plant response rating, Foxtail, Green ([17]; 125 g ai/ha): 90; Plant response rating, Foxtail, Green ([18]; 31 g ai/ha): 10; Plant response rating, Foxtail, Green ([18]; 125 g ai/ha): 60; Plant response rating, Barnyardgrass [19]: 0; Plant response rating, Ragweed ([20]; 31 g ai/ha): 80; Plant response rating, Ragweed ([20]; 125 g ai/ha): 100
Cn1nc(Cl)c(O)c(-c2c3ccccc3c(Br)c3ccccc23)c1=O [Compound 3, 4-(10-bromo-9-anthracenyl)-6-chloro-5-hydroxy-2-methyl-3(2H)-pyridazinone] | 90 | 90 | 40 | 50 | 0 | 10 | 80 | 90 | 10 | 70 | 0 | 50 | 0 | 50 | 100 | 100 | 100 | 100 | 20 | 60 | Plant response rating, Barnyardgrass ([13]; 31 g ai/ha): 20; Plant response rating, Barnyardgrass [13, 21]: 60; Plant response rating, Kochia ([14]; 31 g ai/ha): 10; Plant response rating, Kochia ([14]; 125 g ai/ha): 50; Plant response rating, Ryegrass, Italian ([16]; 31 g ai/ha): 20; Plant response rating, Ryegrass, Italian ([16]; 125 g ai/ha): 80; Plant response rating, Foxtail, Green ([17]; 31 g ai/ha): 10; Plant response rating, Foxtail, Green ([17]; 125 g ai/ha): 80; Plant response rating, Foxtail, Green ([18]; 31 g ai/ha): 40; Plant response rating, Foxtail, Green ([18]; 125 g ai/ha): 90; Plant response rating, Ragweed ([20]; 31 g ai/ha): 20; Plant response rating, Ragweed ([20]; 125 g ai/ha): 100
Cc1c2ccccc2c(-c2c(O)c(Cl)nn(C)c2=O)c2ccccc12 [Compound 5] | 20 | 70 | 0 | 50 | 10 | 20 | 10 | 20 | 0 | 0 | 0 | 0 | 0 | 0 | 50 | 90 | 0 | 60 | 0 | 0 | Plant response rating, Ducksalad [1]: 90; Plant response rating, Sedge, Umbrella [8]: 95; Plant response rating, Barnyardgrass ([13]; 31 g ai/ha): 0; Plant response rating, Barnyardgrass [13, 21]: 30; Plant response rating, Kochia ([14]; 31 g ai/ha): 0; Plant response rating, Kochia ([14]; 125 g ai/ha): 0; Plant response rating, Rice [15]: 0; Plant response rating, Ryegrass, Italian ([16]; 31 g ai/ha): 0; Plant response rating, Ryegrass, Italian ([16]; 125 g ai/ha): 0; Plant response rating, Foxtail, Green ([17]; 31 g ai/ha): 0; Plant response rating, Foxtail, Green ([17]; 125 g ai/ha): 0; Plant response rating, Foxtail, Green ([18]; 31 g ai/ha): 0; Plant response rating, Foxtail, Green ([18]; 125 g ai/ha): 30; Plant response rating, Barnyardgrass [19]: 0; Plant response rating, Ragweed ([20]; 31 g ai/ha): 0; Plant response rating, Ragweed ([20]; 125 g ai/ha): 0
